According to patent publication US12312599B2, “Methods, compositions, and kits for producing beige adipocytes and treating metabolic disorders” (MaineHealth, priority 2018, dated 2025):

System: iPSCs
Assay: Mesoderm induction of iPSCs: FOXF1 and IRX3 expression
Type: cell-based, human
Details: SB added to in-house mesoderm induction medium
Description: PSCs were cultured in monolayer on hESC-qualified Matrigel-coated plates (Corning) and expanded in NutriStem hPSC XF Medium (Stemgent) and passaged with ReLeSR passaging reagent (STEMCELL Technologies). For mesoderm induction (Day 0), PSC colonies was dissociated with TrypLE cell dissociation reagent (Thermofisher) and plated on Matrigel coated plates in NutriStem medium containing 10 μM Y-27632 Rho kinase inhibitor (Calbiochem). The following day (Day 1), NutriStem medium was replaced with STEMdiff Mesoderm Induction Medium (MIM) (STEMCELL Technologies) and changed each day until day 5.
Note: Only use Y-27632 stock solutions that have been resuspended in DMSO. […] Conduct Mesoderm induction of iPSC in a laminar flow cabinet. • 3. Expand cells in NutriStem hPSC XF Medium overnight and change 100% of the medium without Y-27632 every 24 hours in a laminar flow cabinet for cell culture. When changing media, tilt plate up and allow media to pool at the bottom of wells. Aspirate the pooled medium without touching the surface of the plate. Replace with medium warmed to room temperature by pipetting 2 ml down the side of the wells. Cell Passaging • 1. Expand cell colonies until they have reached 70-80% confluence in high-density areas of the wells. High-density accumulation can occur along the edges of the well as well as the middle. Cells permitted to reach high density will lose their potential for differentiation after multiple passages. • 2. Prior to cell passage, warm cell wash buffer and NutriStem hPSC XF Medium to room temperature. Conduct cell passage in a laminar flow cabinet. • 3. Aspirate NutriStem hPSC XF Medium from wells with vacuum aspirator and wash with PBS without calcium or magnesium. Remove PBS and add 1 ml of ReLeSR reagent to side of well. Agitate plate to allow ReLeSR reagent to spread evenly on the surface. • 4. Aspirate ReLeSR reagent with vacuum aspirator after 30 seconds, which will leave behind a thin film of liquid. Incubate plate at 37° C. for 5-8 minutes undisturbed. • 5. Add fresh NutriStem hPSC XF Medium to wells and gently remove the cell colonies from the plate. Check that most cells have been dislodged from the plate surface with a light microscope. If not, rewash with more medium as needed. • 6. Transfer cell colony suspension in NutriStem hPSC XF Medium to Matrigel coated culture plates for further expansion (see Cell plating and culture above). Generation of iPSC Derived MSCs Mesoderm Induction of iPSC • 1. When iPSCs have reached 70-80% confluence, they will need to be passaged as single cells rather than colonies prior to mesoderm induction (day 0). • 2. Prepare for passage by warming cell wash buffer and NutriStem hPSC XF medium to room temperature and add Y-27632 Rho kinase inhibitor to medium at a final concentration of 10 μM. […]

`NC(=O)c1ccc(-c2nc(-c3ccc4c(c3)OCO4)c(-c3ccccn3)[nH]2)cc1` [SB, SB431542] was tested, and the FOXF1 expression was “loss” and the IRX3 expression was “increased expression”.
